The structures appear in SMILES notation.

Format in all cases: biochemical
Test [1] deals with T1, BdDHS1a (3-deoxy-D-arabino-heptulosonate 7-phosphate synthase) (Brachypodium distachyon, UniProt I1GSB3).
T1 construct: gene LOC100823133; without the predicted plastid transit peptide
Kind of test: recombinant purified enzyme, DHS activity (PEP consumption at […] nm). To be noted: read-out: IC50 / (μM Agn).

The target in test [2] is T2, BdDHS2 (3-deoxy-D-arabino-heptulosonate 7-phosphate synthase) (Brachypodium distachyon, UniProt I1I809).
T2 construct: gene LOC100821423; without the predicted plastid transit peptide
The test is described as above. To be noted: read-out: IC50 / (μM Agn).

Test [3] concerns the target T3, BdTyrAnc (non-canonical arogenate dehydrogenase) (Brachypodium distachyon, UniProt I1GYB3).
T3 construct: gene LOC100829970; without the predicted plastid transit peptide, poly-histidine tag
T3 sequence (I1GYB3 51-361): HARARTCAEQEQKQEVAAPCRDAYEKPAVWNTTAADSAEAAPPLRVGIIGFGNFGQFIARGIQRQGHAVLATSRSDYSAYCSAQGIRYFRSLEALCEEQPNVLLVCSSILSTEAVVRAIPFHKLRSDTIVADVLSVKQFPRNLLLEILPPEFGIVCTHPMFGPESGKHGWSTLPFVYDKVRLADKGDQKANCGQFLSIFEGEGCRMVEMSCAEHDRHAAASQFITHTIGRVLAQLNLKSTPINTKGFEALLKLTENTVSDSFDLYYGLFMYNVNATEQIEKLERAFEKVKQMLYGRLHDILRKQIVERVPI
Kind of test: Michaelis-Menten kinetics of recombinant purified enzyme (Km).

The target of test [4] is T2, BdDHS2 (3-deoxy-D-arabino-heptulosonate 7-phosphate synthase). Briefly: recombinant purified enzyme, DHS activity assay. Conditions: read-out: IC50 / (μM Trp).
The target in test [5] is T4, BdTyrA2 (arogenate dehydrogenase) (Brachypodium distachyon, UniProt I1GWX1).
T4 construct: gene LOC100833753; without the predicted plastid transit peptide, poly-histidine tag
T4 sequence (I1GWX1 56-365): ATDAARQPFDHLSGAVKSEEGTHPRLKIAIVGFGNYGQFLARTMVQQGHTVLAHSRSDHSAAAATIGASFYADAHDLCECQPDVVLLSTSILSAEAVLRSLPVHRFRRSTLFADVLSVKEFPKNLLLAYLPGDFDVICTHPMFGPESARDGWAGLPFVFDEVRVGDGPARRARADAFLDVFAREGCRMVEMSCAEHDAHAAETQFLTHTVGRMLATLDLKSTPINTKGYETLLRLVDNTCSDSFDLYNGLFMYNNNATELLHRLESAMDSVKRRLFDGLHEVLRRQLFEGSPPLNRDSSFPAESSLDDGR
Briefly: recombinant purified enzyme, arogenate dehydrogenase assay (NADPH at […] nm); Ki calculated from IC50 and Km. To be noted: read-out: Ki / (μM tyrosine).

The target of test [6] is T3, BdTyrAnc (non-canonical arogenate dehydrogenase). The test is described as above. Conditions: read-out: Ki / (μM tyrosine).

T2 sequence (I1I809 51-503): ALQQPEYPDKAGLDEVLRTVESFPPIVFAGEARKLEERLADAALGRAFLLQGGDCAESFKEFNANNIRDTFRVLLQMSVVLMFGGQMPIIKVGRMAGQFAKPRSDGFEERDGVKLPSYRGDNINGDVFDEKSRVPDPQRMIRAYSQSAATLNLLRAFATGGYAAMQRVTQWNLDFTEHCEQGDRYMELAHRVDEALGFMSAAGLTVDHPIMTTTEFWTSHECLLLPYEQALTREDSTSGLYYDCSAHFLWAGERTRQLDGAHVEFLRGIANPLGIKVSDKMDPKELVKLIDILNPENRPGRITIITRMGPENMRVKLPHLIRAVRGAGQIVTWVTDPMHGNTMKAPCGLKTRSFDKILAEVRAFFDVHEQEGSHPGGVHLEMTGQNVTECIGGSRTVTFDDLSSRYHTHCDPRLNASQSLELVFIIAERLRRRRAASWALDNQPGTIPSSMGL
T1 sequence (I1GSB3 46-537): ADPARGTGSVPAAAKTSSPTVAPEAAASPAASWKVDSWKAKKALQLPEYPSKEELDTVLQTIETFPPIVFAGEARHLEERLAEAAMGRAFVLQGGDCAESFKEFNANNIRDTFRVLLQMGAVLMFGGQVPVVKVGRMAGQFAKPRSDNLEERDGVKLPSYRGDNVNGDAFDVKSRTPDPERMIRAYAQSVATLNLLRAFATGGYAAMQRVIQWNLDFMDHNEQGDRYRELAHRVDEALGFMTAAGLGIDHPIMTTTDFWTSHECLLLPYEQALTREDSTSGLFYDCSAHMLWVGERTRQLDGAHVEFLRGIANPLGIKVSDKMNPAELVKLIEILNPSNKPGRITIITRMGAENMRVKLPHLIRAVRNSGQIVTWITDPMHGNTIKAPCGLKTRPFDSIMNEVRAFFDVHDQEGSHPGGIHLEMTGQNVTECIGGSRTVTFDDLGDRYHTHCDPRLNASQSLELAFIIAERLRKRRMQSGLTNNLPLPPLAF

One may read the Km as the substrate concentration at which the rate is half of its maximum. As for `N[C@@H](C[C@]1(C(=O)O)C=C[C@@H](O)C=C1)C(=O)O` [arogenate], the IC50 was found to be 285 ± 24 µM in test [1] and 91 ± 11 µM in test [2]. Moreover, the Michaelis-Menten constant (Km) in test [3] is 0.13 ± 0.04 mM.
As to `N[C@@H](Cc1c[nH]c2ccccc12)C(=O)O` [tryptophan], the IC50 in test [4] is 120 ± 4 µM.
Regarding `N[C@@H](Cc1ccc(O)cc1)C(=O)O` [tyrosine], the Ki in test [5] was 8 ± 2 µM; in test [6], 64 ± 25 µM.

These data come from publication PMC10636026, “Coordinated regulation of the entry and exit steps of aromatic amino acid biosynthesis supports the dual lignin pathway in grasses” (Nature Communications, 2023).
